# Experimental data as given in ChEMBL document CHEMBL1127074, “Novel hypotensive agents from Verbesina caracasana. 2. Synthesis and pharmacology of caracasanamide” (1993).
# “And” between values parts separate entries of the source, which are not always exact repeats. Identical values can stand only once.
# Key:
# [1] = system: Rattus norvegicus; experiment: Tested for the change in diastolic blood pressure administered at 400 ug/kg intravenously in anesthetized rats; format: functional, Artery
# [2] = system: Rattus norvegicus; experiment: Maximum rate of rise of the left ventricular isovolumetric pressure administered at 6400 ug/kg iv in anesthetized rats in presence of […] (3 mg/kg) (p<0.05); format: functional, Heart left ventricle
# [3] = system: Rattus norvegicus; experiment: Change in heart rate administered at 6400 ug/kg iv in anesthetized rats in presence of hexamethonium (5 mg/kg) (p<0.05); format: functional
# [4] = system: Rattus norvegicus; experiment: Change in heart rate administered at 200 ug/kg iv in anesthetized rats in presence of spinalization under vagotomy; format: functional
# [5] = system: Rattus norvegicus; experiment: Tested for the change in systolic blood pressure administered at 200 ug/kg intravenously in anesthetized rats in presence of spinalization under vagotomy; format: functional, Artery
# [6] = system: Rattus norvegicus; experiment: Tested for the change in systolic blood pressure administered at 3200 ug/kg intravenously in anesthetized rats in presence of hexamethonium (5 mg/kg) (p<0.05); format: functional, Artery
# [7] = system: Rattus norvegicus; experiment: Tested for the change in systolic blood pressure administered at 1600 ug/kg intravenously in anesthetized rats in presence of propranolol (3 mg/kg); format: functional, Artery
# [8] = system: Rattus norvegicus; experiment: Change in heart rate administered at 1600 ug/kg iv in anesthetized rats in presence of hexamethonium (5 mg/kg) (p<0.05); format: functional
# [9] = system: Rattus norvegicus; experiment: Change in respiratory frequency administered at 800 ug/kg iv in anesthetized rats; format: functional
# [10] = system: Rattus norvegicus; experiment: Tested for the change in diastolic blood pressure administered at 3200 ug/kg iv in anesthetized rats in presence of hexamethonium (5 mg/kg) (p<0.05); format: functional, Artery
# [11] = system: Rattus norvegicus; experiment: Change in heart rate administered at 100 ug/kg iv in anesthetized rats in presence of spinalization under vagotomy; format: functional
# [12] = system: Rattus norvegicus; experiment: Tested for the change in systolic blood pressure administered at 200 ug/kg intravenously in anesthetized rats; format: functional, Artery
# [13] = system: Rattus norvegicus; experiment: Maximum rate of rise of the left ventricular isovolumetric pressure (dP/dt) administered at 1600 ug/kg iv in anesthetized rats; format: functional, Heart left ventricle
# [14] = system: Rattus norvegicus; experiment: Tested for the change in diastolic blood pressure administered at 6400 ug/kg iv in anesthetized rats in presence of hexamethonium (5 mg/kg) (p<0.05); format: functional, Artery
# [15] = system: Rattus norvegicus; experiment: Tested for the change in diastolic blood pressure administered at 6400 ug/kg intravenously in anesthetized rats; format: functional, Artery
# [16] = system: Rattus norvegicus; experiment: Tested for the change in diastolic blood pressure administered at 1600 ug/kg intravenously in anesthetized rats; format: functional, Artery
# [17] = system: Rattus norvegicus; experiment: Change in respiratory frequency administered at 1600 ug/kg iv in anesthetized rats; format: functional
# [18] = system: Rattus norvegicus; experiment: Tested for the change in systolic blood pressure administered at 100 ug/kg intravenously in anesthetized rats; format: functional, Artery
# [19] = system: Rattus norvegicus; experiment: Maximum rate of rise of the left ventricular isovolumetric pressure administered at 1600 ug/kg iv in anesthetized rats in presence of hexamethonium (5 mg/kg) (p<0.05); format: functional, Heart left ventricle
# [20] = system: Rattus norvegicus; experiment: Change in heart rate administered at 800 ug/kg iv in anesthetized rats in presence of phentolamine (2 mg/kg); format: functional
# [21] = system: Rattus norvegicus; experiment: Maximum rate of rise of the left ventricular isovolumetric pressure administered at 3200 ug/kg iv in anesthetized rats in presence of hexamethonium (5 mg/kg) (p<0.05); format: functional, Heart left ventricle
# [22] = system: Rattus norvegicus; experiment: Tested for the change in systolic blood pressure administered at 6400 ug/kg intravenously in anesthetized rats in presence of hexamethonium (5 mg/kg) (p<0.05); format: functional, Artery
# [23] = system: Rattus norvegicus; experiment: Maximum rate of rise of the left ventricular isovolumetric pressure administered at 3200 ug/kg iv in anesthetized rats in presence of spinalization under vagotomy (p<0.05); format: functional, Heart left ventricle
# [24] = system: Rattus norvegicus; experiment: Tested for the change in diastolic blood pressure administered at 800 ug/kg iv in anesthetized rats in presence of phentolamine (2 mg/kg); format: functional, Artery
# [25] = system: Rattus norvegicus; experiment: Maximum rate of rise of the left ventricular isovolumetric pressure (dP/dt) administered at 400 ug/kg iv in anesthetized rats; format: functional, Heart left ventricle
# [26] = system: Rattus norvegicus; experiment: Maximum rate of rise of the left ventricular isovolumetric pressure administered at 4.12 uM/kg iv in anesthetized rats; format: functional, Heart left ventricle
# [27] = system: Rattus norvegicus; experiment: Change in respiratory frequency administered at 200 ug/kg iv in anesthetized rats; format: functional
# [28] = system: Rattus norvegicus; experiment: Maximum rate of rise of the left ventricular isovolumetric pressure (dP/dt) administered at 200 ug/kg iv in anesthetized rats; format: functional, Heart left ventricle
# [29] = system: Rattus norvegicus; experiment: Maximum rate of rise of the left ventricular isovolumetric pressure administered at 800 ug/kg iv in anesthetized rats in presence of phentolamine (2 mg/kg); format: functional, Heart left ventricle
# [30] = system: Rattus norvegicus; experiment: Tested for the change in systolic blood pressure administered at 1600 ug/kg intravenously in anesthetized rats in presence of hexamethonium (5 mg/kg) (p<0.05); format: functional, Artery
# [31] = system: Rattus norvegicus; experiment: Change in heart rate administered at 3200 ug/kg iv in anesthetized rats in presence of hexamethonium (5 mg/kg) (p<0.05); format: functional
# [32] = system: Rattus norvegicus; experiment: Change in heart rate administered at 800 ug/kg iv in anesthetized rats in presence of propranolol (3 mg/kg) (p<0.05); format: functional
# [33] = system: Rattus norvegicus; experiment: Tested for the change in diastolic blood pressure administered at 100 ug/kg intravenously in anesthetized rats; format: functional, Artery
# [34] = system: Rattus norvegicus; experiment: Tested for the change in systolic blood pressure administered at 3200 ug/kg intravenously in anesthetized rats in presence of propranolol (3 mg/kg); format: functional, Artery
# [35] = system: Rattus norvegicus; experiment: Tested for the change in diastolic blood pressure administered at 800 ug/kg iv in anesthetized rats in presence of propranolol (3 mg/kg); format: functional, Artery
# [36] = system: Rattus norvegicus; experiment: Tested for the change in diastolic blood pressure administered at 800 ug/kg intravenously in anesthetized rats; format: functional, Artery
# [37] = system: Rattus norvegicus; experiment: Tested for the change in diastolic blood pressure administered at 3200 ug/kg intravenously in anesthetized rats; format: functional, Artery
# [38] = system: Rattus norvegicus; experiment: Change in heart rate administered at 3200 ug/kg iv in anesthetized rats in presence of phentolamine (2 mg/kg); format: functional
# [39] = system: Rattus norvegicus; experiment: Tested for the change in systolic blood pressure administered at 1600 ug/kg intravenously in anesthetized rats; format: functional, Artery
# [40] = system: Rattus norvegicus; experiment: Tested for the change in systolic blood pressure administered at 800 ug/kg intravenously in anesthetized rats; format: functional, Artery
# [41] = system: Rattus norvegicus; experiment: Tested for the change in diastolic blood pressure administered at 6400 ug/kg iv in anesthetized rats in presence of propranolol (3 mg/kg); format: functional, Artery
# [42] = system: Rattus norvegicus; experiment: Change in respiratory frequency administered at 400 ug/kg iv in anesthetized rats; format: functional
# [43] = system: Rattus norvegicus; experiment: Maximum rate of rise of the left ventricular isovolumetric pressure administered at 200 ug/kg iv in anesthetized rats in presence of spinalization under vagotomy; format: functional, Heart left ventricle
smiles,measurement,setting,value
COc1ccc(/C=C/C(=O)NCCCC/N=C(\N)NCC=C(C)C)cc1OC,Blood pressure,[1],-14 mmHg and -23%
same,dp/dt,[2],853 mmHg s-1
same,Heart rate,[3],12 beats min-1
same,Heart rate,[4],0 beats min-1
same,Blood pressure,[5],0 mmHg
same,Blood pressure,[6],-11 mmHg
same,Blood pressure,[7],-25 mmHg
same,Heart rate,[8],10 beats min-1
same,Frequency,[9],25 beats min-1 and 24%
same,Blood pressure,[10],-17 mmHg
same,Heart rate,[11],0 beats min-1
same,Blood pressure,[12],-11 mmHg and -14%
same,BP,[13],57%
same,dp/dt,[13],2996 mmHg s-1
same,Blood pressure,[14],-20 mmHg
same,Blood pressure,[15],-31 mmHg and -48%
same,Blood pressure,[16],-18 mmHg and -29%
same,Frequency,[17],23 beats min-1 and 21%
same,Blood pressure,[18],-6 mmHg and -8%
same,dp/dt,[19],1008 mmHg s-1
same,Heart rate,[20],17 beats min-1
same,dp/dt,[21],1124 mmHg s-1
same,Blood pressure,[22],-13 mmHg
same,dp/dt,[23],680 mmHg s-1
same,Blood pressure,[24],-19 mmHg
same,BP,[25],33%
same,dp/dt,[25],1712 mmHg s-1
same,dP/dtmax,[26],3000 mmHg/s
same,Frequency,[27],12 beats min-1 and 12%
same,BP,[28],25%
same,dp/dt,[28],1284 mmHg s-1
same,dp/dt,[29],2503 mmHg s-1
same,Blood pressure,[30],-8 mmHg
same,Heart rate,[31],9 beats min-1
same,Heart rate,[32],6 beats min-1
same,Blood pressure,[33],-6 mmHg and -9%
same,Blood pressure,[34],-30 mmHg
same,Blood pressure,[35],-13 mmHg
same,Blood pressure,[36],-15 mmHg and -23%
same,Blood pressure,[37],-29 mmHg and -47%
same,Heart rate,[38],24 beats min-1
same,Blood pressure,[39],-21 mmHg and -26%
same,Blood pressure,[40],-17 mmHg and -21%
same,Blood pressure,[41],-28 mmHg
same,Frequency,[42],16 beats min-1 and 16%
same,dp/dt,[43],0 mmHg s-1
